What was measured:
[1] = system: NIH-3T3 cells transfected with the gene for the c-met receptor; assay: Protection from apoptosis in NIH-3T3 cells transfected with c-met receptor (MTT assay); assay type: cell-based
From the text: b. Protection from apoptosis in NIH-3T3 cells transfected with c-met receptor.

[2] = system: HUVECs; assay: Nitric oxide production in endothelial cells (DAF2-DA fluorescence); assay type: cell-based, human; settings: 24 hours incubation
Procedure: c. HGF and compounds of the invention stimulate nitric oxide production in endothelial cells. HUVECs are incubated with either vehicle, HGF/SF, instant compounds, or SNAP for 24 hours, loaded with the nitric oxide-sensitive fluorescence indicator DAF2-DA and imaged under a laser scanning confocal microscope.

[3] = system: LX2 cells (an immortalized human hepatic stellate cell line); assay: Antifibrotic activity in hepatic stellate cells; assay type: cell-based; settings: serum starved (activated) LX2 cells
From the text: a. Antifibrotic Activity in Hepatic Stellate Cells.

[4] = system: MDCK cells; assay: Anti-apoptotic activity in cultured cell lines (adriamycin-induced apoptosis); assay type: cell-based
From the text: a. HGF/SF and instant compounds have significant anti-apoptotic activity in cultured cell lines.

| Compound | Protection from adriamycin-induced apoptosis (MTT assay) [1] | Nitric oxide production (DAF2-DA fluorescence) [2] | Collagen I mRNA expression [3] | Adriamycin-induced apoptosis ([4]; MDCK cells) | Cell viability ([4]; pretreatment, HUVEC and MDCK cell lines) |
| --- | --- | --- | --- | --- | --- |
| HGF/SF: pleiotropic growth factor; heparin-binding heterodimeric protein composed of a 62 kDa α chain and a 34 kDa β chain | protect the cells from adriamycin-induced apoptosis | significant increase in fluorescence | decrease in collagen I mRNA expression | significantly block adriamycin-induced apoptosis | significantly improves the cell viability |
| CC(=O)N[C@@H](C(=O)O)C(C)(C)SN=O (racemic) [SNAP, reference compound] | – | significant increase in fluorescence | – | – | – |
